The text below walks through data of a flash point compilation (Sun et al. 2020).

Structures are written as SMILES. “And” between values parts separate entries of the source, which are not always exact repeats. Equal entries are not always repeated. Structures can show the parent of a compound that is named as a salt.

For the compound `OCCCCO` [1,4-butanediol], the flash point came to 135 °C.
On to `N#CCCCCC#N` [1,4-dicyanobutane], for which the flash point was determined as 159 °C.
On to `CC1CCC(C)CC1` (centres undefined) [1,4-dimethylcyclohexane], for which the flash point turned out to be 10 °C.
The compound `C=CCCC=C` [1,5-hexadiene] yielded a flash point of -27 °C.
`OCCCCCO` [1,5-pentanediol] displayed a flash point of 136 °C.
As for `SCCCCCS` [1,5-pentanedithiol], the figure is 95 °C; as for `CCCCCBr` [1-bromopentane], 31 °C; as for `CCc1ccc(Cl)cc1` [1-chloro-4-ethylbenzene], 64 °C.
Take `CCCCCCCCl` [1-chloroheptane]: the flash point came to 41 °C.
In the case of `CC(=O)C1CC1` [1-cyclopropylethanone], the flash point turned out to be 13 °C.
For `CCCCCCCF` [1-fluoroheptane], the flash point came out at 13 °C.
`CCCCCCI` [1-iodohexane] yielded a flash point of 67 °C.
With `CCCCOC` [1-methoxybutane], the flash point was -10 °C.
In turn, `CN1CCCC1=O` [1-methyl-2-pyrrolidinone] yielded a flash point of 86 °C.
`Cc1cccc2ccccc12` [1-methylnaphthalene]: the flash point was 82 °C.
For `Cn1cccc1` [1-methylpyrrole], the flash point came out at 15 °C.
For the compound `CN1CCCC1` [1-methylpyrrolidine], the flash point was -18 °C.
As for `CCCCCCCCS` [1-octanethiol], the figure is 69 °C.
The compound `C=CCCCCCC` [1-octene] yielded a flash point of 21 °C.
On to `CC(C)(Cl)Cl` [2,2-dichloropropane], for which the flash point was -5 °C.
Regarding `CC(C)(C)C#N` [2,2-dimethylpropanenitrile], the flash point is 4 °C.
`Cc1cc(C)nc(C)c1` [2,4,6-trimethylpyridine] yielded a flash point of 57 °C.
On to `CC(=O)CC(C)=O` [2,4-pentanedione], for which the flash point amounted to 34 °C.
Compound `COC1C=CC(OC)O1` (centres undefined) [2,5-dimethoxy-2,5-dihydrofuran] returned a flash point of 51 °C.
Consider `CC(O)CCC(C)O` (centres undefined) [2,5-hexanediol], for which the flash point is 101 °C.
`C1=CC2C=CC1C2` [2,5-norbornadiene] gave a flash point of -11 °C.
For `CC(C)(N)CO` [2-amino-2-methyl-1-propanol], the flash point came out at 67 °C.
In turn, `COC(CBr)OC` [2-bromo-1,1-dimethoxyethane] registered a flash point of 53 °C.
As for `CC=CC#N` [2-butenenitrile], the figure is 20 °C.
In turn, `CC(C)(C)Cl` [2-chloro-2-methylpropane] yielded a flash point of -27 °C.
The compound `O=C1C=CCCC1` [2-cyclohexen-1-one] gave a flash point of 34 °C.
Regarding `CN(C)CCO` [2-dimethylaminoethanol], the flash point came out at 40 °C.
Compound `CCCCC(C=O)CC` (centres undefined) [2-ethylhexanal] came in with a flash point of 46 °C.
Turning to `C=CC(=O)OCC(CC)CCCC` (centres undefined) [2-ethylhexyl acrylate], the flash point stood at 86 °C.
`CCC1=NCCO1` [2-ethyloxazoline]: the flash point was 29 °C.
Consider `CCC(C)I` (centres undefined) [2-iodobutane], for which the flash point was 23 °C.
Compound `CC(C)OCCO` [2-isopropoxyethanol] registered a flash point of 43 °C.
For the compound `CC(C)C=O` [2-methyl-1-propanal], the flash point was -25 °C.
`CCC(C)(C)O` [2-methyl-2-butanol] yielded a flash point of 21 °C.
`CNCCO` [2-methylaminoethanol] returned a flash point of 71 °C.
Compound `CC1CCCCC1O` (centres undefined) [2-methylcyclohexanol] came in with a flash point of 58 °C.
As for `Cc1ccc2ccccc2c1` [2-methylnaphthalene], the figure is 97 °C; as for `CC1CCCO1` (centres undefined) [2-methyltetrahydrofuran], -11 °C; as for `Cc1cccs1` [2-methylthiophene], 7 °C.
The compound `CCCCCCCC(C)=O` [2-nonanone] displayed a flash point of 69 °C.
Regarding `CCCCCCC(C)=O` [2-octanone], the flash point amounted to 62 °C.
Compound `CCCC(C)O` (centres undefined) [2-pentanol] came in with a flash point of 40 °C.
As for `CC(C)(C)c1ccco1` [2-t-butylfuran], the flash point turned out to be 7 °C.
As for `CCCCCCCCCC(C)O` (centres undefined) [2-undecanol], the figure is 107 °C; as for `CCCCCCCCCC(C)=O` [2-undecanone], 89 °C.
`CC(C)(C)CC(=O)O` [3,3-dimethylbutanoic acid] gave a flash point of 88 °C.
As for `C=CCC#N` [3-butenenitrile], the figure is 21 °C.
In the case of `CCCCOCCCN` [3-butoxypropylamine] it was 63 °C; in that of `C=CCI` [3-iodo-1-propene], 18 °C.
Take `C=CC(C)C` [3-methyl-1-butene]: the flash point is -57 °C.
As for `CC(C)C(C)S` (centres undefined) [3-methyl-2-butanethiol], the flash point worked out at 19 °C.
The compound `CC(=O)C(C)C` [3-methyl-2-butanone] returned a flash point of 6 °C.
Consider `CC=C(C)CC` [3-methyl-2-pentene], for which the flash point is -6 °C.
On to `CCC(C)C(CC)CC` (centres undefined) [3-methyl-4-ethylhexane], for which the flash point was found to be 24 °C.
In the case of `CC1CCCC(O)C1` (centres undefined) [3-methylcyclohexanol], the flash point was determined as 62 °C.
Turning to `CCCCC(C)CC` (centres undefined) [3-methylheptane], the flash point stood at 7 °C.
In the case of `CCCC(C)CC` (centres undefined) [3-methylhexane] it was -3 °C.
As for `Cc1cccnc1` [3-methylpyridine], the figure is 38 °C.
As for `Cc1ccsc1` [3-methylthiophene], the figure is 11 °C.
Regarding `Cc1cccnc1` [3-picoline], the flash point came out at 40 °C.
Compound `Oc1ccc(Cl)cc1` [4-chlorophenol] had a flash point of 115 °C.
As for `Cc1ccc(Cl)cc1` [4-chlorotoluene], the figure is 49 °C; as for `CC(C)CCCO` [4-methyl-1-pentanol], 51 °C; as for `C=CCC(C)C` [4-methyl-1-pentene], -31 °C.
`CSCCC=O` [4-thiapentanal] showed a flash point of 58 °C.
For the compound `C=CC1CC=CCC1` (centres undefined) [4-vinyl-1-cyclohexene], the flash point is 16 °C.
Regarding `C#CCCCCl` [5-chloro-1-pentyne], the flash point came out at 15 °C.
In the case of `CC=C1CC2C=CC1C2` (centres undefined) [5-ethylidene-2-norbornene] it was 38 °C.
In turn, `C=CCCCCO` [5-hexen-1-ol] came in with a flash point of 47 °C.
For `CC(=O)CCC(C)C` [5-methyl-2-hexanone], the flash point amounted to 36 °C.
For `CCC(=O)CC(C)CC` (centres undefined) [5-methyl-3-heptanone], the flash point came out at 43 °C.
As for `C=CCCCCCCCCO` [9-decen-1-ol], the figure is 119 °C.
In turn, `CCN(C)CC` [N,N-diethylmethylamine] registered a flash point of -23 °C.
For `CCNC(C)C` [N-ethylisopropylamine], the flash point worked out at 16 °C.
The compound `CC=NO` [acetaldoxime] gave a flash point of 36 °C.
`CC(=O)OC(C)=O` [acetic anhydride]: the flash point came to 49 °C.
In the case of `CC(=O)c1ccccc1` [acetophenone] it was 82 °C; in that of `C=CC#N` [acrylonitrile], -1 °C.
As for `C=CCOC(C)=O` [allyl acetate], the figure is 6 °C; as for `C=C(C)c1ccccc1` [alpha-methylstyrene], 45 °C.
As for `O=Cc1ccccc1` [benzaldehyde], the figure is 62 °C.
With `c1ccc2occc2c1` [benzofuran], the flash point was found to be 56 °C.
Consider `OCc1ccccc1` [benzyl alcohol], for which the flash point is 93 °C.
`O=C(OCc1ccccc1)c1ccccc1` [benzyl benzoate] showed a flash point of 147 °C.
Turning to `N#CCc1ccccc1` [benzyl cyanide], the flash point was determined as 101 °C.
In the case of `CCCCOCC` [butyl ethyl ether] it was -5 °C; in that of `CCCCN=C=O` [butyl isocyanate], 29 °C.
On to `CCCC=O` [butyraldehyde], for which the flash point was -6 °C.
`CCCC(=O)OC(=O)CCC` [butyric anhydride] came in with a flash point of 87 °C.
With `Clc1ccccc1` [chlorobenzene], the flash point is 27 °C.
As for `O=CC=Cc1ccccc1` [cinnamaldehyde], the figure is 71 °C.
As for `C[C@H]1CC[C@@H](C)CC1` [cis-1,4-dimethylcyclohexane], the figure is 6 °C; as for `C/C=C/C(=O)O` [crotonic acid], 88 °C.
The compound `C1CCC1` [cyclobutane] yielded a flash point of -65 °C.
In turn, `NC1CCC1` [cyclobutylamine] gave a flash point of -4 °C.
For the compound `OC1CCCCCC1` [cycloheptanol], the flash point amounted to 71 °C.
For the compound `O=C1CCCCCC1` [cycloheptanone], the flash point turned out to be 55 °C.
Turning to `NC1CCCCC1` [cyclohexylamine], the flash point worked out at 28 °C.
As for `OC1CCCC1` [cyclopentanol], the figure is 51 °C; as for `C1CC1` [cyclopropane], -95 °C; as for `CC(C)(C)SC(C)(C)C` [di-t-butyl sulfide], 48 °C.
The compound `CCSSCC` [diethyl disulfide] showed a flash point of 40 °C.
Consider `CCOC(=O)/C=C/C(=O)OCC` [diethyl fumarate], for which the flash point was 91 °C.
Regarding `CCNCC` [diethylamine], the flash point is -26 °C and -23 °C.
In turn, `CCCCOCCOCCOCCCC` [diethylene glycol dibutyl ether] showed a flash point of 117 °C.
For the compound `CC(C)CC(=O)CC(C)C` [diisobutyl ketone], the flash point was 49 °C.
Compound `COC` [dimethylether] came in with a flash point of -83 °C.
As for `CS(C)=O` [dimethylsulfoxide], the figure is 88 °C; as for `CCCCCOCCCCC` [dipentylether], 57 °C.
